The text below walks through data of US4450269A, “Mono-5-substituted-3-chloro-4H-1,2,6-thiadiazin-4-one antifungal agents” (FMC Corporation, priority 1980, dated 1984).

Where two headings read alike, the source gives them in different places.

Test [1] deals with Uromyces phaseoli. Kind of test: whole plant or invertebrate. Particulars: foliar, 24 h, read-out: Percent Disease Control, curative, bean rust.
Test [2] relates to Uromyces phaseoli. Kind of test: whole plant or invertebrate. Particulars: foliar, read-out: Percent Disease Control, foliar, bean rust.
A further test concerns Sclerotinia fructicola. Kind of test: Mycelial growth test. In kind it is cell-based. Particulars: Sclerotinia, 72 h, SF, read-out: Percent Fungus Growth Inhibition. An excerpt: | SF = Sclerotinia fructicola
A further test has as its system Pyricularia oryzae. Kind of test: whole plant or invertebrate. Format: in vivo. Particulars: Pyricularia oryzae, foliar, 24 h, read-out: Percent Disease Control, curative, rice blast, 150 ppm, 24 hours after inoculation.
Another test relates to Erysiphe polygoni. Kind of test: whole plant or invertebrate. Particulars: foliar, 24 h, read-out: Percent Disease Control, curative, bean powdery mildew.

On to `COc1ccc(Cl)c(Oc2nsnc(Cl)c2=O)c1` [Compound 51, 3-chloro-5-[(2-chloro-5-methoxy)phenoxy]-4H--1,2,6-thiadiazin-4-one], for which the pest or weed control at 150 ppm in the test with Uromyces phaseoli [1], with Uromyces phaseoli [2], in the test with Pyricularia oryzae and in the test with Erysiphe polygoni was 0% each time. The inhibition at 5 ppm in the test on Sclerotinia fructicola was found to be 69%. The inhibition at 10 ppm in the test with Sclerotinia fructicola amounted to 92%. For the same molecule, in the test with Sclerotinia fructicola, the inhibition at 20 ppm amounted to 92%. Also, the inhibition at 40 ppm with Sclerotinia fructicola was determined as 100%.
Regarding `O=c1c(Cl)nsnc1Oc1ccc([N+](=O)[O-])cc1Cl` [Compound 53, 3-chloro-5-(2-chloro-4-nitrophenoxy)-4H--1,2,6-thiadiazin-4-one], the pest or weed control at 150 ppm came to 0% with Uromyces phaseoli [1], 100% in the test with Uromyces phaseoli [2], 0% in the test with Pyricularia oryzae and 0% with Erysiphe polygoni. In the test with Sclerotinia fructicola, the inhibition at 5 ppm came to 63%. In the test on Sclerotinia fructicola, the inhibition at 10 ppm was determined as 89%. In the test with Sclerotinia fructicola, the inhibition at 20 ppm turned out to be 100%. Also, the inhibition at 40 ppm with Sclerotinia fructicola turned out to be 100%.
Consider `Cc1cc(Oc2nsnc(Cl)c2=O)ccc1Cl` [Compound 54, 3-chloro-5-(4-chloro-3-methylphenoxy)-4H--1,2,6-thiadiazin-4-one], for which the pest or weed control at 150 ppm in the test with Uromyces phaseoli [1] came out at 0%; in the test on Uromyces phaseoli [2], 100%; with Pyricularia oryzae it was 0%; with Erysiphe polygoni, 0%. The inhibition at 5 ppm in the test on Sclerotinia fructicola is 49%. Besides, the inhibition at 10 ppm in the test on Sclerotinia fructicola stood at 50%. The inhibition at 20 ppm in the test with Sclerotinia fructicola came to 53%. Moreover, in the test on Sclerotinia fructicola, the inhibition at 40 ppm was 64%.
For `Cc1cc(Cl)ccc1Oc1nsnc(Cl)c1=O` [Compound 55, 3-chloro-5-(4-chloro-2-methylphenoxy)-4H--1,2,6-thiadiazin-4-one], the pest or weed control at 150 ppm in the test on Uromyces phaseoli [1] was found to be 0%; in the test with Uromyces phaseoli [2], 100%; in the test on Pyricularia oryzae, 50%; with Erysiphe polygoni, 50%. Also, the inhibition at 5 ppm in the test on Sclerotinia fructicola amounted to 42%. In the test on Sclerotinia fructicola, the inhibition at 10 ppm was 50%. Besides, the inhibition at 20 ppm in the test with Sclerotinia fructicola worked out at 56%. In addition, the inhibition at 40 ppm in the test with Sclerotinia fructicola came out at 61%.
As to `Cc1ccc(Cl)c(Oc2nsnc(Cl)c2=O)c1` [Compound 56, 3-chloro-5-[(2-chloro-5-methyl)phenoxy]-4H--1,2,6-thiadiazin-4-one], in the test on Uromyces phaseoli [1], the pest or weed control at 150 ppm came to 100%. In addition, the pest or weed control at 150 ppm in the test with Uromyces phaseoli [2] stood at 0%. Moreover, in the test with Sclerotinia fructicola, the inhibition at 5 ppm stood at 69%, the inhibition at 10 ppm turned out to be 78%, the inhibition at 20 ppm came out at 100% and the inhibition at 40 ppm stood at 100%. For the same molecule, in the test with Pyricularia oryzae, the pest or weed control at 150 ppm came out at 0%. Also, the pest or weed control at 150 ppm with Erysiphe polygoni amounted to 0%.
Regarding `Cc1ccc(Oc2nsnc(Cl)c2=O)c(Br)c1` [Compound 57, 3-[(2-bromo-4-methyl)-phenoxy]-5-chloro-4H--1,2,6-thiadiazin-4-one], the pest or weed control at 150 ppm with Uromyces phaseoli [1] came to 0%. Moreover, in the test on Uromyces phaseoli [2], the pest or weed control at 150 ppm turned out to be 100%. In the test on Sclerotinia fructicola, the inhibition at 5 ppm was found to be 68%, the inhibition at 10 ppm stood at 82%, the inhibition at 20 ppm worked out at 100% and the inhibition at 40 ppm worked out at 100%. Also, the pest or weed control at 150 ppm in the test on Pyricularia oryzae amounted to 0%. Besides, the pest or weed control at 150 ppm in the test with Erysiphe polygoni was found to be 100%.
For `Cc1cc(Cl)c(Oc2nsnc(Cl)c2=O)cc1C` [Compound 58, 3-chloro-5-[(2-chloro-4,5-dimethyl)phenoxy]-4H--1,2,6-thiadiazin-4-one], the pest or weed control at 150 ppm was 0% with Uromyces phaseoli [1], 100% in the test with Uromyces phaseoli [2], 0% with Pyricularia oryzae and 50% in the test with Erysiphe polygoni. In addition, in the test with Sclerotinia fructicola, the inhibition at 5 ppm amounted to 56%. Moreover, the inhibition at 10 ppm in the test on Sclerotinia fructicola came out at 65%. The inhibition at 20 ppm with Sclerotinia fructicola was found to be 68%. In addition, the inhibition at 40 ppm in the test with Sclerotinia fructicola came out at 71%.
Consider `COc1cc(Oc2nsnc(Cl)c2=O)cc(OC)c1C(C)=O` [Compound 61, 3-[(4-acetyl-3,5-dimethoxy)-phenoxy]-5-chloro-4H--1,2,6-thiadiazin-4-one], for which the pest or weed control at 150 ppm in the test with Uromyces phaseoli [1] was found to be 0%. Besides, the pest or weed control at 150 ppm in the test on Uromyces phaseoli [2] stood at 100%. In addition, in the test with Sclerotinia fructicola, the inhibition at 5 ppm came out at 7%, the inhibition at 10 ppm is 19%, the inhibition at 20 ppm turned out to be 59% and the inhibition at 40 ppm stood at 85%. Also, in the test with Pyricularia oryzae, the pest or weed control at 150 ppm is 0%. In addition, the pest or weed control at 150 ppm in the test on Erysiphe polygoni is 0%.

The term inhibition denotes the relative decrease from the control value, in per cent.
